According to patent publication US12601718B2, “Method for pretreating ranitidine hydrochloride sample” (Hunan Institute for Drug Inspection and Testing, priority 2022, dated 2026):

Tests used:
[1] = NDMA carcinogenicity / acceptable intake from CPDB toxicological data (TD50 linear extrapolation, rodent carcinogenicity data); type: in vivo; details: 0.0959 μg÷300 mg
Method: According to the toxicological data in the FDA according to the Carcinogenic Potency Database (CPDB database), the NDMA acceptable daily intake is set at about 0.096 μg. On Sep. 13, 2019, the FDA released a safety warning that some Ranitidine-based drugs (including the brand-name drug Zantac) contain the impurity of N-nitrosodimethylamine (NDMA). Subsequently, China launched special inspections and testing on NDMA for this variety.

[2] = cited from earlier work
[3] = cited from earlier work; remark: listed apart in the source

Structure (SMILES)	limit value of the impurity NDMA in Ranitidine hydrochloride capsules [1]	NDMA acceptable daily intake ([2]; FDA, according to CPDB database)	carcinogen class ([2]; in vivo)	solubility in dichloromethane [3]	solubility in water [3]
CN(C)N=O [NDMA, N-nitrosodimethylamine]	≈ 320 ng/g	about 0.096 μg	class-2A carcinogen	almost insoluble	readily soluble
CNC(=C[N+](=O)[O-])NCCSCc1ccc(CN(C)C)o1 [Ranitidine]				almost insoluble	readily soluble
